Test results taken from patent US20170007615A1, “Antibacterial Compounds” (priority 2014, published 2017).
Values after ≈ are worked out from the molar mass of the structure shown.

Key:
E. coli (ATCC 25922) [1] = conditions: for MIC of Compound (μg/ml) in the presence of PMBN (128 μg/ml): Table 1, (b) No effect
[2] = system: A. baumannii (ATCC 19606); conditions: Table 4
[3] = system: A. baumannii (ATCC 19606); test: microbe, parasite or virus in culture; conditions: Acinetobacter baumannii, ATCC19606, read-out: MIC Compound alone
E. coli (ATCC 25922) [4] = test: microbe, parasite or virus in culture; conditions: Escherichia coli, ATCC25922, read-out: MIC Compound alone, Table 1
[5] = system: H. influenzae (ATCC 49247); test: Antibacterial activity (MIC), Gram-negative type strain; format: cell-based, Haemophilus influenzae; conditions: Table 13; for MIC: Haemophilus influenzae, ATCC49247
E. faecalis (ATCC 29212) = test: Antibacterial activity (MIC), Gram-positive type strain; format: cell-based, Enteroccocus faecalis; conditions: Table 13; for MIC: Enterococcus faecalis, ATCC29212
S. aureus (ATCC 29213) = test: as above; format: cell-based, Staphylococcus aureus; conditions: Table 13; for MIC: Staphylococcus aureus, ATCC29213
[6] = system: N. gonorrheae (ATCC 49226); test: Antibacterial activity (MIC), Gram-negative type strain; format: cell-based, Neisseria gonorrhoeae; conditions: Table 13; for MIC: Neisseria gonorrhoeae, ATCC49226
E. cloaceae (ATCC 13047) = conditions: Table 7; (a) No measurable antibacterial activity
[7] = system: K. pneumonia colistin-resistant strains; test: microbe, parasite or virus in culture; format: cell-based; conditions: K. pneumonia strains raised by selection with 2 or 4 μg/mL of colistin on MH agar
B. cepacia (ATCC 25416) = test: Antibacterial activity (MIC), alone and with colistin; format: cell-based, Burkholderia cepacia; conditions: Table 8; (a) No measurable antibacterial activity
[8] = system: E. coli colistin-resistant strains; test: microbe, parasite or virus in culture; format: cell-based; conditions: E. coli strains raised by selection with 2 or 4 μg/mL of colistin on MH agar
[9] = system: A. baumannii colistin-resistant strains; test: microbe, parasite or virus in culture; format: cell-based; conditions: A. baumannii strains raised by selection with 2 or 4 μg/mL of colistin on MH agar

Compound | MIC of Compound (μg/ml) in the presence of PMBN (128 μg/ml) (E. coli (ATCC 25922) [1]) [µg/mL] | MIC (E. coli (ATCC 25922) [4]) [mg/L] | MIC [5] [mg/L] | MIC (E. faecalis (ATCC 29212)) [mg/L] | MIC (S. aureus (ATCC 29213)) [mg/L] | MIC [6] [mg/L] | further results
CCNC(=O)Nc1nc2cc(-c3cnc(C(C)(O)CO)nc3)cc(-c3ncc(C)cn3)c2s1 (stereo not drawn) [Compound A-8, 1-[5-[2-(1,2-Dihydroxy-1-methyl-ethyl)pyrimidin-5-yl]-7-(5-methylpyrimidin-2-yl)-1,3-benzothiazol-2-yl]-3-ethyl-urea] | 0.06 | 4 (≈ 8.59 µM) | – | – | – | – | MIC of Compound (μg/ml) in the presence of PMBN (128 μg/ml) [2]: 0.25 µg/mL; MIC [3]: 2 mg/L (≈ 4.3 µM)
CCNC(=O)Nc1nc2cc(-c3cnc(NS(=O)(=O)c4ccccc4C(=O)O)nc3)cc(-c3ccccn3)c2s1 [Compound A-10, 2-[[5-[2-(Ethylcarbamoylamino)-7-(2-pyridyl)-1,3-benzothiazol-5-yl]pyrimidin-2-yl]sulfamoyl]benzoic acid] | 4 | > 64 | 4 (≈ 6.95 µM) | 0.5 (≈ 0.869 µM) | 2 (≈ 3.47 µM) | 0.25 (≈ 0.434 µM) | –
CCNC(=O)Nc1nc2cc(-c3cnc(NS(=O)(=O)N4CCCC4)nc3)cc(-c3ccc(C)cn3)c2s1 [Compound A-11, 1-Ethyl-3-[7-(5-methyl-2-pyridyl)-5-[2-(pyrrolidin-1-ylsulfonylamino)pyrimidin-5-yl]-1,3-benzothiazol-2-yl]urea] | 0.015 | 2 (≈ 3.71 µM) | 0.06 (≈ 0.111 µM) | ≤ 0.008 | 0.004 (≈ 0.00743 µM) | 0.015 (≈ 0.0278 µM) | –
CCCS(=O)(=O)Nc1ncc(-c2cc(-c3ccc(C)cn3)c3sc(NC(=O)NCC)nc3c2)cn1 [Compound A-12, 1-Ethyl-3-[7-(5-methyl-2-pyridyl)-5-[2-(propylsulfonylamino)pyrimidin-5-yl]-1,3-benzothiazol-2-yl]urea] | 0.008 | 2 (≈ 3.91 µM) | 0.015 (≈ 0.0293 µM) | ≤ 0.008 | ≤ 0.002 | ≤ 0.008 | –
CCNC(=O)Nc1nc2cc(-c3cnc(NS(=O)(=O)C(C)(C)CO)nc3)cc(-c3ccc(C)cn3)c2s1 [Compound A-14, 1-Ethyl-3-[5-[2-[(2-hydroxy-1,1-dimethyl-ethyl)sulfonylamino]pyrimidin-5-yl]-7-(5-methyl-2-pyridyl)-1,3-benzothiazol-2-yl]urea] | 0.03 | 4 (≈ 7.38 µM) | 0.015 (≈ 0.0277 µM) | ≤ 0.008 | 0.03 (≈ 0.0554 µM) | 0.015 (≈ 0.0277 µM) | –
CCNC(=O)Nc1nc2cc(-c3cnc(NS(=O)(=O)N(C)CCO)nc3)cc(-c3ccc(C)cn3)c2s1 [Compound A-15, 1-Ethyl-3-[5-[2-[[2-hydroxyethyl(methyl)sulfamoyl]amino]pyrimidin-5-yl]-7-(5-methyl-2-pyridyl)-1,3-benzothiazol-2-yl]urea] | 0.03 | 4 (≈ 7.37 µM) | 0.03 (≈ 0.0553 µM) | 0.015 (≈ 0.0276 µM) | 0.12 (≈ 0.221 µM) | ≤ 0.008 | –
CCNC(=O)Nc1nc2cc(-c3cnc(NS(=O)(=O)C4CCCC4)nc3)cc(-c3ccc(C)cn3)c2s1 [Compound A-21, 1-[5-[2-(cyclopentylsulfonylamino)pyrimidin-5-yl]-7-(5-methyl-2-pyridyl)-1,3-benzothiazol-2-yl]-3-ethyl-urea] | – | – | 0.03 (≈ 0.0558 µM) | ≤ 0.008 | ≤ 0.002 | ≤ 0.008 | MIC of Compound (μg/ml) in the presence of PMBN (128 μg/ml) [2]: 0.03 µg/mL; MIC [3]: 1 mg/L (≈ 1.86 µM)
CCNC(=O)Nc1nc2cc(-c3cnc(NS(=O)(=O)N4CC[C@@H](N5CCOCC5)C4)nc3)cc(-c3ccc(C)cn3)c2s1 [Compound A-56, (R)—N-(5-(2-(3-ethylureido)-7-(5-methylpyridin-2-yl)benzo[d]thiazol-5-yl)pyrimidin-2-yl)-3-morpholinopyrrolidine-1-sulfonamide] | – | – | 0.12 (≈ 0.192 µM) | 0.015 (≈ 0.024 µM) | 0.06 (≈ 0.0962 µM) | 0.06 (≈ 0.0962 µM) | –
CCNC(=O)Nc1nc2cc(-c3cnc(NS(=O)(=O)N4CC[C@@H](N(C)C)C4)nc3)cc(-c3ccc(C)cn3)c2s1 [Compound A-57, (R)-3-(dimethylamino)-N-(5-(2-(3-ethylureido)-7-(5-methylpyridin-2-yl)benzo[d]thiazol-5-yl)pyrimidin-2-yl)pyrrolidine-1-sulfonamide] | – | – | 0.5 (≈ 0.86 µM) | 0.03 (≈ 0.0516 µM) | 0.25 (≈ 0.43 µM) | 0.12 (≈ 0.206 µM) | –
CCNC(=O)Nc1nc2cc(-c3cnc(NS(=O)(=O)C4CCN(C(C)=O)C4)nc3)cc(-c3ccc(C)cn3)c2s1 (stereo not drawn) [Compound A-58, 1-acetyl-N-(5-(2-(3-ethylureido)-7-(5-methylpyridin-2-yl)benzo[d]thiazol-5-yl)pyrimidin-2-yl)pyrrolidine-3-sulfonamide] | – | – | 1 (≈ 1.72 µM) | 0.25 (≈ 0.431 µM) | 2 (≈ 3.44 µM) | 0.03 (≈ 0.0517 µM) | –
CCNC(=O)Nc1nc2cc(-c3cnc(NS(=O)(=O)N4CC[C@@H](O)C4)nc3)cc(-c3ccc(C)cn3)c2s1 [Compound A-59, (R)—N-(5-(2-(3-ethylureido)-7-(5-methylpyridin-2-yl)benzo[d]thiazol-5-yl)pyrimidin-2-yl)-3-hydroxypyrrolidine-1-sulfonamide] | – | – | 0.03 (≈ 0.0541 µM) | 0.015 (≈ 0.027 µM) | 0.12 (≈ 0.216 µM) | 0.015 (≈ 0.027 µM) | –
CCNC(=O)Nc1nc2cc(-c3cnc(NS(=O)(=O)N4CC[C@H](O)C4)nc3)cc(-c3ccc(C)cn3)c2s1 [Compound A-60, (S)—N-(5-(2-(3-ethylureido)-7-(5-methylpyridin-2-yl)benzo[d]thiazol-5-yl)pyrimidin-2-yl)-3-hydroxypyrrolidine-1-sulfonamide] | – | – | 0.03 (≈ 0.0541 µM) | 0.06 (≈ 0.108 µM) | 0.12 (≈ 0.216 µM) | ≤ 0.008 | –
CCNC(=O)Nc1nc2cc(-c3cnc(NS(=O)(=O)C(C)(C)C)nc3)c(F)cc2s1 [Compound A-61, N-(5-(2-(3-ethylureido)-6-fluorobenzo[d]thiazol-5-yl)pyrimidin-2-yl)-2-methylpropane-2-sulfonamide] | – | – | 0.12 (≈ 0.265 µM) | 0.06 (≈ 0.133 µM) | 0.06 (≈ 0.133 µM) | 0.25 (≈ 0.552 µM) | –
CCNC(=O)Nc1nc2cc(-c3ccn(C)c(=O)c3)cc(-c3ccccn3)c2s1 [Example 51 (WO2007/148093)] | 0.06 | 16 (≈ 39.5 µM) | – | – | – | – | MIC of Compound (μg/ml) in the presence of PMBN (128 μg/ml) [2]: 0.5 µg/mL; MIC [3]: 4 mg/L (≈ 9.86 µM)
N-(5-(2-(3-ethylureido)-7-(5-methylpyridin-2-yl)benzo[d]thiazol-5-yl)pyrimidin-2-yl)-N-methylmethanesulfonamide [Compound A-29] | – | – | – | – | – | – | MIC vs. H. influenzae (ATCC 49247) [5]: 2 mg/L; MIC vs. E. faecalis (ATCC 29212) (E. faecalis (ATCC 29212)): 0.06 mg/L; MIC vs. S. aureus (ATCC 29213) (S. aureus (ATCC 29213)): 0.25 mg/L; MIC vs. N. gonorrheae (ATCC 49226) [6]: 0.25 mg/L
N-(5-(2-(3-ethylureido)-7-(pyridin-2-yl)benzo[d]thiazol-5-yl)pyrimidin-2-yl)morpholine-4-sulfonamide [Compound A-43] | – | – | – | – | – | – | MIC vs. H. influenzae (ATCC 49247) [5]: 0.03 mg/L; MIC vs. E. faecalis (ATCC 29212) (E. faecalis (ATCC 29212)): <=0.008 μg/ml; MIC vs. S. aureus (ATCC 29213) (S. aureus (ATCC 29213)): 0.12 mg/L; MIC vs. N. gonorrheae (ATCC 49226) [6]: <=0.008 μg/ml
colistin [reference compound] | – | – | – | – | – | – | MIC colistin alone (E. coli (ATCC 25922) [1]; Table 2): 2 mg/L; MIC Compound alone (E. coli (ATCC 25922) [1]; Table 12): 4 mg/L; MIC of Compound (μg/ml) in the presence of PMBN (32 μg/ml) (E. coli (ATCC 25922) [1]; Table 12, (b) No significant effect): 4^(b) μg/ml; MIC colistin alone (E. cloaceae (ATCC 13047)): >64^(a) μg/ml; MIC (colistin) [7]: ^(a)Raised by selection with 2 or 4 μg/mL of colistin on MH agar: MIC (colistin) = 16-32 μg/mL; MIC colistin alone (B. cepacia (ATCC 25416)): >64^(a) μg/ml; MIC (colistin) [8]: ^(a)Raised by selection with 2 or 4 μg/mL of colistin on MH agar: MIC (colistin) = 16-32 μg/mL; MIC (colistin) [9]: ^(a)Raised by selection with 2 or 4 μg/mL of colistin on MH agar: MIC (colistin) = 16-32 μg/mL
